Test results published in article PMC9481151, “Discovery of new symmetrical and asymmetrical nitrile-containing 1,4-dihydropyridine derivatives as dual kinases and P-glycoprotein inhibitors: synthesis, in vitro assays, and in silico studies” (Journal of Enzyme Inhibition and Medicinal Chemistry, 2022).
Values after ≈ are worked out from the molar mass of the structure shown. Values joined by “and” are separate entries in the source; they are usually repeats but may differ in a detail not shown here. Equal entries are not always repeated. Where two headings read alike, the source gives them in different places.

Columns and labels:
[1] = system: C. albicans; assay: MIC, two-fold microbroth dilution method; conditions: Candida albicans
[2] = system: UACC-62; assay: NCI single dose (10 µM) SRB screen; assay type: cell-based, human; conditions: melanoma, 48 h
[3] = system: Escherichia coli; assay: Agar well diffusion method; conditions: for zone of inhibition at 1000 µg/mL: Escherichia coli, 24 h, read-out: Diameter of inhibition zone, E. coli; for % activity index, E. coli: relative to ciprofloxacin
[4] = system: SR; assay: NCI single dose (10 µM) SRB screen; assay type: cell-based, human; conditions: leukaemia, 48 h
[5] = system: P. aeruginosa; assay: MIC, two-fold microbroth dilution method; conditions: Pseudomonas aeruginosa, read-out: MIC (µg/mL) P. aeruginosa
[6] = system: B. subtilis; assay: MIC, two-fold microbroth dilution method; conditions: Bacillus subtilis
[7] = system: MCF7; assay: NCI single dose (10 µM) SRB screen; assay type: cell-based, human; conditions: breast cancer, 48 h
[8] = system: E. coli; assay: MIC, two-fold microbroth dilution method; conditions: Escherichia coli, read-out: MIC (µg/mL) E. coli
[9] = system: DU-145; assay: NCI single dose (10 µM) SRB screen; assay type: cell-based, human; conditions: prostate cancer, 48 h
[10] = system: Bacillus subtilis; assay: Agar well diffusion method; conditions: for zone of inhibition at 1000 µg/mL: Bacillus subtilis, 24 h, read-out: Diameter of inhibition zone, B. subtilis; for % activity index, B. subtilis: relative to ciprofloxacin
[11] = system: SK-MEL-28; assay: NCI single dose (10 µM) SRB screen; assay type: cell-based, human; conditions: melanoma, 48 h
[12] = system: KM12; assay: NCI single dose (10 µM) SRB screen; assay type: cell-based, human; conditions: colon cancer, 48 h
[13] = system: NCI-H522; assay: NCI single dose (10 µM) SRB screen; assay type: cell-based, human; conditions: non-small cell lung cancer, 48 h
[14] = system: SW-620; assay: NCI single dose (10 µM) SRB screen; assay type: cell-based, human; conditions: colon cancer, 48 h
[15] = system: Pseudomonas aeruginosa; assay: Agar well diffusion method; conditions: for zone of inhibition at 1000 µg/mL: Pseudomonas aeruginosa, 24 h, read-out: Diameter of inhibition zone, P. aeruginosa; for % activity index, P. aeruginosa: relative to ciprofloxacin
[16] = system: S. aureus; assay: MIC, two-fold microbroth dilution method; conditions: Staphylococcus aureus
[17] = system: SK-MEL-5; assay: NCI single dose (10 µM) SRB screen; assay type: cell-based, human; conditions: melanoma, 48 h
[18] = system: A. flavus; assay: MIC, two-fold microbroth dilution method; conditions: Aspergillus flavus, read-out: MIC (µg/mL) A. flavus
[19] = system: HOP-62; assay: NCI single dose (10 µM) SRB screen; assay type: cell-based, human; conditions: non-small cell lung cancer, 48 h
[20] = system: NCI-H226; assay: NCI single dose (10 µM) SRB screen; assay type: cell-based, human; conditions: non-small cell lung cancer, 48 h
[21] = read-out: MIC (µg/mL) C. albicans
[22] = read-out: MIC (µg/mL) B. subtilis
[23] = read-out: MIC (µg/mL) S. aureus
[24] = 24 h, read-out: MIC, B. subtilis

Row | Compound | MIC [1, 21] [µg/mL] | GI% UACC-62 [2] | zone of inhibition at 1000 µg/mL [3] [mm] | % activity index, E. coli [3] | GI% SR [4] | MIC [5] [µg/mL] | GI% MCF7 [7] | GI% DU-145 [9] | zone of inhibition at 1000 µg/mL [10] [mm] | % activity index, B. subtilis [10] | GI% SK-MEL-28 [11] | GI% KM12 [12] | GI% NCI-H522 [13] | GI% SW-620 [14] | zone of inhibition at 1000 µg/mL [15] [mm] | % activity index, P. aeruginosa [15] | GI% SK-MEL-5 [17] | melting point [°C] | GI% HOP-62 [19] | GI% NCI-H226 [20] | further results
1 | CCOC(=O)C1=C(C)NC(C)=C(C(=O)OCCOC)C1c1cccc(C#N)c1 (racemic) [Compound 2k, (±)-3-Ethyl 5-(2-methoxyethyl) 4-(3-cyanophenyl)-2,6-dimethyl-1,4-dihydropyridine-3,5-dicarboxylate] | 32 (≈ 83.2 µM) | – (Only GI% ≥ 10 are shown) | 15 | 57.7% | 13% | 8 (≈ 20.8 µM) | – (Only GI% ≥ 10 are shown) | – (Only GI% ≥ 10 are shown) | 13 | 56.5% | – (Only GI% ≥ 10 are shown) | – (Only GI% ≥ 10 are shown) | – (Only GI% ≥ 10 are shown) | – (Only GI% ≥ 10 are shown) | 20 | 86.9% | – (Only GI% ≥ 10 are shown) | 133 to 134 | – (Only GI% ≥ 10 are shown) | – (Only GI% ≥ 10 are shown) | MIC [6, 22]: 8 µg/mL (≈ 20.8 µM); MIC [8]: 4 µg/mL (≈ 10.4 µM); MIC [16, 23]: 16 µg/mL (≈ 41.6 µM); MIC [18]: 32 µg/mL (≈ 83.2 µM)
2 | CCOC(=O)C1=C(C)NC(C)=C(C(=O)OC)C1c1cccc(C#N)c1 (racemic) [Compound 2g, (±)-3-Ethyl 5-methyl 4-(3-cyanophenyl)-2,6-dimethyl-1,4-dihydropyridine-3,5-dicarboxylate] | 1 (≈ 2.94 µM) | – (Only GI% ≥ 10 are shown) | 19 | 73% and 73.1% | 14% | 2 (≈ 5.88 µM) | 11% | – (Only GI% ≥ 10 are shown) | 19 | 82% and 82.6% | – (Only GI% ≥ 10 are shown) | – (Only GI% ≥ 10 are shown) | – (Only GI% ≥ 10 are shown) | – (Only GI% ≥ 10 are shown) | 21 | 91% and 91.3% | – (Only GI% ≥ 10 are shown) | 151 to 153 | – (Only GI% ≥ 10 are shown) | – (Only GI% ≥ 10 are shown) | MIC ([1]; 24 h, read-out: MIC, C. albicans): 1 µg/mL (≈ 2.94 µM); MIC [6, 24]: 1 µg/mL (≈ 2.94 µM); MIC [6, 22]: 1 µg/mL (≈ 2.94 µM); MIC [8]: 1 µg/mL (≈ 2.94 µM); MIC ([16]; 24 h, read-out: MIC, S. aureus): 0.5 µg/mL (≈ 1.47 µM); MIC [16, 23]: 0.5 µg/mL (≈ 1.47 µM); MIC [18]: 2 µg/mL (≈ 5.88 µM)
3 | COC(=O)C1=C(C)NC(C)=C(C(=O)OC(C)C)C1c1cccc(C#N)c1 (racemic) [Compound 2a, (±)-3-Isopropyl 5-methyl 4-(3-cyanophenyl)-2,6-dimethyl-1,4-dihydropyridine-3,5-dicarboxylate] | 4 (≈ 11.3 µM) | – (Only GI% ≥ 10 are shown) | 14 | 53.8% | – (Only GI% ≥ 10 are shown) | 4 (≈ 11.3 µM) | – (Only GI% ≥ 10 are shown) | – (Only GI% ≥ 10 are shown) | 17 | 73% and 73.9% | – (Only GI% ≥ 10 are shown) | – (Only GI% ≥ 10 are shown) | 14% | – (Only GI% ≥ 10 are shown) | 19 | 82.6% | – (Only GI% ≥ 10 are shown) | 128 to 130 | – (Only GI% ≥ 10 are shown) | – (Only GI% ≥ 10 are shown) | MIC [6, 24]: 2 µg/mL (≈ 5.64 µM); MIC [6, 22]: 2 µg/mL (≈ 5.64 µM); MIC [8]: 2 µg/mL (≈ 5.64 µM); MIC ([16]; 24 h, read-out: MIC, S. aureus): 1 µg/mL (≈ 2.82 µM); MIC [16, 23]: 1 µg/mL (≈ 2.82 µM); MIC [18]: 8 µg/mL (≈ 22.6 µM)
4 | COCCOC(=O)C1=C(C)NC(C)=C(C(=O)OCCOC)C1c1cccc(C#N)c1 [Compound 1f, Di(2-methoxyethyl) 4-(3-cyanophenyl)-2,6-dimethyl-1,4-dihydropyridine-3,5-dicarboxylate] | 16 (≈ 38.6 µM) | – (Only GI% ≥ 10 are shown) | 13 | 50% | – (Only GI% ≥ 10 are shown) | 16 (≈ 38.6 µM) | – (Only GI% ≥ 10 are shown) | – (Only GI% ≥ 10 are shown) | 16 | 69.6% | – (Only GI% ≥ 10 are shown) | – (Only GI% ≥ 10 are shown) | – (Only GI% ≥ 10 are shown) | – (Only GI% ≥ 10 are shown) | 17 | 73.9% | – (Only GI% ≥ 10 are shown) | 125 to 126 | – (Only GI% ≥ 10 are shown) | – (Only GI% ≥ 10 are shown) | MIC [6, 22]: 2 µg/mL (≈ 4.83 µM); MIC [8]: 8 µg/mL (≈ 19.3 µM); MIC [16, 23]: 4 µg/mL (≈ 9.65 µM); MIC [18]: 16 µg/mL (≈ 38.6 µM)
5 | COCCOC(=O)C1=C(C)NC(C)=C(C(=O)OC)C1c1cccc(C#N)c1 (racemic) [Compound 2d, (±)-3-(2-Methoxyethyl) 5-methyl 4-(3-cyanophenyl)-2,6-dimethyl-1,4-dihydropyridine-3,5-dicarboxylate] |  | – (Only GI% ≥ 10 are shown) | 10 | 38.5% | – (Only GI% ≥ 10 are shown) |  | – (Only GI% ≥ 10 are shown) | – (Only GI% ≥ 10 are shown) | 10 | 43.5% | – (Only GI% ≥ 10 are shown) | – (Only GI% ≥ 10 are shown) | – (Only GI% ≥ 10 are shown) | – (Only GI% ≥ 10 are shown) | 14 | 60.9% | – (Only GI% ≥ 10 are shown) | 127 to 128 | – (Only GI% ≥ 10 are shown) | – (Only GI% ≥ 10 are shown) | 
